ChEMBL document CHEMBL5154672, “Design and synthesis of HDAC inhibitors to enhance the therapeutic effect of diffuse large B-cell lymphoma by improving metabolic stability and pharmacokinetic characteristics” (Eur J Med Chem, 2022)

Experiments:
[1] = AUC (0 to t) in CB.17 SCID mouse xenografted with human TMD8 cells at 25 mg/kg, po measured upto 24 hrs by LC-MS/MS analysis; format: ADME, organism-based; set-up: dose 25 mg/kg, time < 24 hrs, route po; conditions: in vivo
[2] = Metabolic stability in human liver microsomes assessed as half life measured for 75 to 130 mins by LC-MS/MS analysis; format: ADME, Microsome; conditions: liver microsomes, time 75-130 min
[3] = Metabolic stability in human liver microsomes assessed as intrinsic clearance measured for 75 to 130 mins by LC-MS/MS analysis; format: ADME, Microsome; conditions: liver microsomes, time 75-130 min, read-out: CLH
[4] = tested on: HT-29; assay: Antiproliferative activity against human HT-29 cells incubated for 72 hrs by luminescence assay; format: functional, cell-based; conditions: HT-29, 72 h
[5] = tested on: COLO-678; assay: Antiproliferative activity against human COLO-678 cells incubated for 72 hrs by luminescence assay; format: functional, cell-based; conditions: COLO-678, 72 h
[6] = tested on: CWR22R; assay: Antiproliferative activity against human 22Rv1 cells incubated for 72 hrs by luminescence assay; format: functional, cell-based; conditions: 22Rv1, 72 h
[7] = tested on: 786-0; assay: Antiproliferative activity against human 786-O cells incubated for 72 hrs by luminescence assay; format: functional, cell-based; conditions: 786-0, 72 h
[8] = tested on: TMD8; assay: Antiproliferative activity against human TMD8 cells incubated for 72 hrs by luminescence assay; format: functional, cell-based; conditions: TMD8, 72 h
[9] = tested on: MOLT-4; assay: Antiproliferative activity against human MOLT-4 cells incubated for 72 hrs by luminescence assay; format: functional, cell-based; conditions: MOLT-4, 72 h
[10] = tested on: HuT78; assay: Antiproliferative activity against human HuT78 cells incubated for 72 hrs by luminescence assay; format: functional, cell-based; conditions: HuT78, 72 h
[11] = Metabolic stability in mouse liver microsomes assessed as half life measured for 75 to 130 mins by LC-MS/MS analysis; format: ADME, Microsome; conditions: time 75-130 min
[12] = Metabolic stability in monkey liver microsomes assessed as half life measured for 75 to 130 mins by LC-MS/MS analysis; format: ADME, Macaca fascicularis, Microsome; conditions: cynomolgus monkey, time 75-130 min
[13] = Metabolic stability in monkey liver microsomes assessed as intrinsic clearance measured for 75 to 130 mins by LC-MS/MS analysis; format: ADME, Macaca fascicularis, Microsome; conditions: cynomolgus monkey, time 75-130 min, read-out: CLH
[14] = Metabolic stability in rat liver microsomes assessed as intrinsic clearance measured for 75 to 130 mins by LC-MS/MS analysis; format: ADME, Microsome; conditions: time 75-130 min, read-out: CLH
[15] = target: Histone deacetylase 8 (Homo sapiens, UniProt Q9BY41); assay: Inhibition of HDAC8 (unknown origin) using RHK(Ac)K(Ac)AMC fluorogenic peptide as substrate preincubated for 10 mins followed by substrate addition for 2 hr in presence of ATP by fluoroscence based assay
[16] = Half life in ICR mouse at 25 mg/kg, po measured upto 24 hrs by LC-MS/MS analysis; format: ADME, organism-based; conditions: in vivo
[17] = AUC (0 to infinity) in ICR mouse at 25 mg/kg, po measured upto 24 hrs by LC-MS/MS analysis; format: ADME, organism-based; set-up: time < 24 hrs, dose 25 mg/kg, route po; conditions: in vivo
[18] = MRT in ICR mouse at 25 mg/kg, po measured upto 24 hrs by LC-MS/MS analysis; format: ADME, organism-based; conditions: in vivo
[19] = Oral bioavailability in ICR mouse at 25 mg/kg measured upto 24 hrs by LC-MS/MS analysis; format: ADME, organism-based; conditions: in vivo
[20] = Cmax in CB.17 SCID mouse xenografted with human TMD8 cells at 25 mg/kg, po measured upto 24 hrs by LC-MS/MS analysis; format: ADME, organism-based; set-up: dose 25 mg/kg, time < 24 hrs, route po; conditions: in vivo
[21] = Cmax in CB.17 SCID mouse xenografted with human TMD8 cells at 50 mg/kg, po measured upto 24 hrs by LC-MS/MS analysis; format: ADME, organism-based; set-up: dose 50 mg/kg, time < 24 hrs, route po; conditions: in vivo
[22] = AUC (0 to infinity) in CB.17 SCID mouse xenografted with human TMD8 cells at 50 mg/kg, po measured upto 24 hrs by LC-MS/MS analysis; format: ADME, organism-based; set-up: dose 50 mg/kg, time < 24 hrs, route po; conditions: in vivo
[23] = MRT (0 to t) in CB.17 SCID mouse xenografted with human TMD8 cells at 25 mg/kg, po measured upto 24 hrs by LC-MS/MS analysis; format: ADME, organism-based; conditions: in vivo
[24] = MRT(0 to infinity) in CB.17 SCID mouse xenografted with human TMD8 cells at 25 mg/kg, po measured upto 24 hrs by LC-MS/MS analysis; format: ADME, organism-based; conditions: in vivo
[25] = MRT(0 to infinity) in CB.17 SCID mouse xenografted with human TMD8 cells at 50 mg/kg, po measured upto 24 hrs by LC-MS/MS analysis; format: ADME, organism-based; conditions: in vivo
[26] = MRT(0 to infinity) in CB.17 SCID mouse xenografted with human TMD8 cells at 100 mg/kg, po measured upto 24 hrs by LC-MS/MS analysis; format: ADME, organism-based; conditions: in vivo
[27] = tested on: TMD8; assay: Induction of apoptosis in human TMD8 cells assessed as viable cells at 0.5 uM incubated for 24 hrs by Annexin V-FITC/PI staining based flow cytometric analysis (reference value: 96.4%); format: functional; conditions: read-out: Activity
[28] = tested on: TMD8; assay: Induction of apoptosis in human TMD8 cells assessed as early apoptotic cells at 0.5 uM incubated for 24 hrs by Annexin V-FITC/PI staining based flow cytometric analysis (reference value: 0.24%); format: functional
[29] = tested on: TMD8; assay: Induction of apoptosis in human TMD8 cells assessed as late apoptotic cells at 0.5 uM incubated for 24 hrs by Annexin V-FITC/PI staining based flow cytometric analysis (reference value: 1.54%); format: functional
[30] = tested on: TMD8; assay: Induction of apoptosis in human TMD8 cells assessed as necrotic cells at 0.5 uM incubated for 24 hrs by Annexin V-FITC/PI staining based flow cytometric analysis (RVB=1.85%); format: functional
[31] = tested on: TMD8; assay: Induction of apoptosis in human TMD8 cells assessed as viable cells at 1 uM incubated for 24 hrs by Annexin V-FITC/PI staining based flow cytometric analysis (reference value: 96.4%); format: functional; conditions: read-out: Activity
[32] = tested on: TMD8; assay: Induction of apoptosis in human TMD8 cells assessed as early apoptotic cells at 1 uM incubated for 24 hrs by Annexin V-FITC/PI staining based flow cytometric analysis (reference value: 0.24%); format: functional
[33] = tested on: TMD8; assay: Induction of apoptosis in human TMD8 cells assessed as late apoptotic cells at 1 uM incubated for 24 hrs by Annexin V-FITC/PI staining based flow cytometric analysis (reference value: 1.54%); format: functional
[34] = tested on: TMD8; assay: Induction of apoptosis in human TMD8 cells assessed as necrotic cells at 1 uM incubated for 24 hrs by Annexin V-FITC/PI staining based flow cytometric analysis (reference value: 1.85%); format: functional
[35] = tested on: TMD8; assay: Induction of apoptosis in human TMD8 cells assessed as early apoptotic cells at 2 uM incubated for 24 hrs by Annexin V-FITC/PI staining based flow cytometric analysis (reference value: 0.24%); format: functional
[36] = tested on: TMD8; assay: Induction of apoptosis in human TMD8 cells assessed as late apoptotic cells at 2 uM incubated for 24 hrs by Annexin V-FITC/PI staining based flow cytometric analysis (reference value: 1.54%); format: functional
[37] = tested on: TMD8; assay: Induction of apoptosis in human TMD8 cells assessed as necrotic cells at 2 uM incubated for 24 hrs by Annexin V-FITC/PI staining based flow cytometric analysis (reference value: 1.85%); format: functional
[38] = tested on: TMD8; assay: Induction of apoptosis in human TMD8 cells assessed as late apoptotic cells at 4 uM incubated for 24 hrs by Annexin V-FITC/PI staining based flow cytometric analysis (reference value: 1.54%); format: functional

Sequence of Histone deacetylase 8 (Q9BY41 whole entry): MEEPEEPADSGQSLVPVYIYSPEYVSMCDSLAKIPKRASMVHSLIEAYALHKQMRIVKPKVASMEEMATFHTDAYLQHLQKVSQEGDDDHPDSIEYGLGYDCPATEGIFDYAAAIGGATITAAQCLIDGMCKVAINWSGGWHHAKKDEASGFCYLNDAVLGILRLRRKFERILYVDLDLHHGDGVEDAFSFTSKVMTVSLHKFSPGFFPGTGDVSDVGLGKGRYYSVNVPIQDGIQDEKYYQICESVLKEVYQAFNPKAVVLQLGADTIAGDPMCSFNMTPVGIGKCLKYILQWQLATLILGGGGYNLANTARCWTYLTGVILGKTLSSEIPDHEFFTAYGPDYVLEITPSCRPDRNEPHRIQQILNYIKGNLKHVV

Question: Which results are given for `Nc1ccccc1NC(=O)c1ccc(CN2CCC/C(=C\c3ccccn3)C2=O)cc1`?
Answer: AUC(0-t) at 24 h [1]: 1220 ng·h/mL; half-life [2]: 13.3 h; microsomal CLint [3]: 1.7 µL/min/mg; IC50 [4]: 2410 nM; IC50 [5]: 8020 nM; IC50 [6]: 1140 nM; IC50 [7]: 600 nM; IC50 [8]: 310 nM; IC50 [9]: 380 nM; IC50 [10]: 800 nM; half-life [11]: 2.88 h; half-life [12]: 1.63 h; microsomal CLint [13]: 14.1 µL/min/mg; microsomal CLint [14]: 13.2 µL/min/mg; IC50 [15]: > 10000 nM; half-life [16]: 4.4 h; AUC(0-inf) [17]: 5180 ng·h/mL; MRT [18]: 2.6 h; bioavailability [19]: 39.9%; Cmax [20]: 1700 ng/mL; Cmax [21]: 14700 ng/mL; AUC(0-inf) [22]: 9730 ng·h/mL; MRT last at 24 h [23]: 0.75 h; MRT inf [24]: 0.805 h; MRT inf [25]: 0.821 h; MRT inf [26]: 1.51 h; viability at 0.5 µM [27]: 95.8%; Activity [28]: 0.34%; Activity [29]: 1.59%; Activity [30]: 2.29%; viability at 1 µM [31]: 92.2%; Activity [32]: 1.03%; Activity [33]: 3.13%; Activity [34]: 3.64%; Activity [35]: 10.3%; Activity [36]: 7.94%; Activity [37]: 6.52%; Activity [38]: 9.64%
